According to patent US12129237B2, “Substituted diaminocarboxamide and diaminocarbonitrile pyrimidines, compositions thereof, and methods of treatment therewith” (SIGNAL PHARMACEUTICALS, LLC, priority 2011, dated 2024):

molecular target: T1, JNK1 (Homo sapiens, UniProt P45983); assay: JNK1 biochemical assays (one or more of: time resolved fluorescence, Z'-LYTE Cascade, radioactive); settings: Table 2; JNK1 IC50 activity level; read-out: Act. Level
T1 construct: purchased Carna Biosciences
T1 sequence (P45983 whole entry): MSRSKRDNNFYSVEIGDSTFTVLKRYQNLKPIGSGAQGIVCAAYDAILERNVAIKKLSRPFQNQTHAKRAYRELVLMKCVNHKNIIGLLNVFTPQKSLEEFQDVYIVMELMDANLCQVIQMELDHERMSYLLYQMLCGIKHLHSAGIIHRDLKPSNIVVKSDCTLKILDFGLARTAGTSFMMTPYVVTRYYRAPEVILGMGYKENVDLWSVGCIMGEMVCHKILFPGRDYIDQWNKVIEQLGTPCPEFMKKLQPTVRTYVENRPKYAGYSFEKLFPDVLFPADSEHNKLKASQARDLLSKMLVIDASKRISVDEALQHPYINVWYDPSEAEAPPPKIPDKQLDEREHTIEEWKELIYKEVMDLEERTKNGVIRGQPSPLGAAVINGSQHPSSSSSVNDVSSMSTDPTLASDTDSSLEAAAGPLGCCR

Row | IC50 | Structure (SMILES)
1 | < 200 nM | CC1CCC(Nc2ncc(C(N)=O)c(Nc3ccccc3)n2)CC1 (stereo not shown) [Example B-47, 2-(4-methylcyclohexylamino)-4-(phenylamino)pyrimidine-5-carboxamide]
2 | 200 to 800 nM | COc1ccc(CCNc2ncc(C(N)=O)c(Nc3ccccc3)n2)cc1 [Example B-38, 2-(4-methoxyphenethylamino)-4-(phenylamino)pyrimidine-5-carboxamide]
3 | 200 to 800 nM | COc1ccc(NC(C)=O)cc1Nc1ncc(C(N)=O)c(Nc2ccccc2)n1 [Example B-32, 2-(5-acetamido-2-methoxyphenylamino)-4-(phenylamino)pyrimidine-5-carboxamide]

same assay, conditions: Table 3; JNK1 IC50 activity level; read-out: Act. Level

Row | IC50 | Structure (SMILES)
4 | 200 to 800 nM | N#Cc1cnc(N[C@H]2CC[C@H](O)CC2)nc1N[C@@H]1CCCC[C@@H]1O [Example C-31, 4-((1R,2S)-2-hydroxycyclohexylamino)-2-((1r,4R)-4-hydroxycyclohexylamino) pyrimidine-5-carbonitrile]
5 | < 200 nM | CO[C@H]1CC[C@H](Nc2ncc(C#N)c(N[C@@H]3CCC[C@@H]3CO)n2)CC1 [Example C-16, 4-((1R,2S)-2-(hydroxymethyl)cyclopentylamino)-2-((1r,4R)-4-methoxycyclohexylamino) pyrimidine-5-carbonitrile]
6 | 200 to 800 nM | N#Cc1cnc(NC2CCC(F)(F)CC2)nc1N[C@@H]1CCC[C@@H]1CO [Example C-64, 2-(4,4-difluorocyclohexylamino)-4-((1R,2S)-2-(hydroxymethyl)cyclopentylamino) pyrimidine-5-carbonitrile]
7 | 200 to 800 nM | N#Cc1cnc(N[C@H]2CC[C@H](O)CC2)nc1NC12CC(C1)C2 [Example C-61, 4-(bicyclo[1.1.1]pentan-1-ylamino)-2-((1r,4r)-4-hydroxycyclohexylamino) pyrimidine-5-carbonitrile]
8 | < 200 nM | C[C@@H]1CC[C@@H](Nc2nc(NC3CCC3)ncc2C#N)C[C@H]1O [Example C-65, 2-(cyclobutylamino)-4-((1R,3R,4R)-3-hydroxy-4-methylcyclohexylamino) pyrimidine-5-carbonitrile]
9 | 200 to 800 nM | CCO[C@H]1CC[C@H](Nc2ncc(C#N)c(N[C@H]3CC[C@@H](O)CC3)n2)CC1 [Example C-22, 2-((1r,4r)-4-ethoxycyclohexylamino)-4-((1s,4s)-4-hydroxycyclohexylamino) pyrimidine-5-carbonitrile]

same assay, conditions: one or more of the JNK1 biochemical assays; read-out: Act. Level (JNK1 IC50 activity level)

Row | IC50 | Structure (SMILES)
10 | < 200 nM | CC1(Nc2nc(NC3CCOCC3)ncc2C(N)=O)CCC1 [Example 413, 4-(1-methylcyclobutylamino)-2-(tetrahydro-2H-pyran-4-ylamino)pyrimidine-5-carboxamide]
11 | < 200 nM | NC(=O)c1cnc(NC2CCC(F)(F)CC2)nc1N[C@@H]1CCC[C@@H]1CO [Example 241, 2-(4,4-difluorocyclohexylamino)-4-((1R,2S)-2-(hydroxymethyl)cyclopentylamino)pyrimidine-5-carboxamide]
12 | < 200 nM | CO[C@H]1CC[C@H](Nc2ncc(C(N)=O)c(N[C@@H]3CCC[C@H]3CO)n2)CC1 [Example 260, 4-((1R,2R)-2-(hydroxymethyl)cyclopentylamino)-2-((1r,4R)-4-methoxycyclohexylamino)pyrimidine-5-carboxamide]
13 | < 200 nM | NC(=O)c1cnc(N[C@@H]2CCC[C@H](O)C2)nc1NC1CCC1 [Example 433, 4-(cyclobutylamino)-2-((1R,3S)-3-hydroxycyclohexylamino)pyrimidine-5-carboxamide]
14 | < 200 nM | CCO[C@H]1CC[C@H](Nc2ncc(C(N)=O)c(NC3(CC)CCCCC3)n2)CC1 [Example 478, 2-((1r,4r)-4-ethoxycyclohexylamino)-4-(1-ethylcyclohexylamino)pyrimidine-5-carboxamide]
15 | < 200 nM | NC(=O)c1cnc(N[C@H]2CCCOC2)nc1NC1CCC1 [Example 448, (S)-4-(cyclobutylamino)-2-(tetrahydro-2H-pyran-3-ylamino)pyrimidine-5-carboxamide]
16 | < 200 nM | CCC(CC)Nc1nc(N[C@H]2CC[C@H](O)CC2)ncc1C(N)=O [Example 363, 2-((1r,4r)-4-hydroxycyclohexylamino)-4-(pentan-3-ylamino)pyrimidine-5-carboxamide]
17 | < 200 nM | CO[C@H]1CC[C@H](Nc2ncc(C(N)=O)c(N[C@@H](C)C3CCC3)n2)CC1 [Example 295, 4-((S)-1-cyclobutylethylamino)-2-((1r,4S)-4-methoxycyclohexylamino)pyrimidine-5-carboxamide]
18 | < 200 nM | CC1(Nc2nc(NC34CCC(O)(CC3)C4)ncc2C(N)=O)CCCC1 [Example 446, 2-(4-hydroxybicyclo[2.2.1]heptan-1-ylamino)-4-(1-methylcyclopentylamino)pyrimidine-5-carboxamide]

same assay, conditions: tested in one or more of the JNK1 biochemical assays; read-out: Act. Level (JNK1 biochemical assay IC50 activity level)

Row | IC50 | Structure (SMILES)
19 | 200 to 800 nM | CC(C)CC(=O)N1CCC(Nc2nc(N[C@@H]3CC[C@@H](O)C3)ncc2C(N)=O)CC1 [Example A-86, 2-((1R,3R)-3-hydroxycyclopentylamino)-4-(1-(3-methylbutanoyl)piperidin-4-ylamino)pyrimidine-5-carboxamide]
20 | < 200 nM | C[C@H](Nc1ncc(C(N)=O)c(N[C@H]2CC[C@@H](N)CC2)n1)C1CCCCC1 [Example A-126, 4-((1s,4R)-4-aminocyclohexylamino)-2-((S)-1-cyclohexylethylamino)pyrimidine-5-carboxamide]
21 | < 200 nM | CCO[C@H]1CC[C@H](Nc2ncc(C(N)=O)c(N[C@@H]3CCC[C@@H]3O)n2)CC1 [Example A-104, 2-((1r,4R)-4-ethoxycyclohexylamino)-4-((1R,2S)-2-hydroxycyclopentylamino)pyrimidine-5-carboxamide]
22 | < 200 nM | CO[C@@H]1CCC[C@H](Nc2ncc(C(N)=O)c(N[C@@H]3CCC[C@H](O)C3)n2)CC1 [Example A-162, 4-((1R,3S)-3-hydroxycyclohexylamino)-2-((1S,4R)-4-methoxycycloheptylamino)pyrimidine-5-carboxamide]
23 | < 200 nM | CCO[C@H]1CC[C@H](Nc2ncc(C(N)=O)c(NC[C@@H](C)O)n2)CC1 [Example A-67, 2-((1r,4R)-4-ethoxycyclohexylamino)-4-((R)-2-hydroxypropylamino)pyrimidine-5-carboxamide]
24 | < 200 nM | CO[C@H]1CC[C@H](Nc2ncc(C(N)=O)c(NC(C)(C)CCO)n2)CC1 [Example A-35, 4-(4-hydroxy-2-methylbutan-2-ylamino)-2-((1r,4r)-4-methoxycyclohexylamino)pyrimidine-5-carboxamide]
25 | < 200 nM | CC(C)Nc1nc(N[C@H]2CC[C@H](CO)CC2)ncc1C(N)=O [Example A-12, 2-((1r,4r)-4-(hydroxymethyl)cyclohexylamino)-4-(isopropylamino)pyrimidine-5-carboxamide]
26 | < 200 nM | CO[C@H]1CC[C@H](Nc2ncc(C(N)=O)c(N[C@H]3CC[C@@H](N)CC3)n2)CC1 [Example A-120, 4-((1s,4s)-4-aminocyclohexylamino)-2-((1r,4r)-4-methoxycyclohexylamino)pyrimidine-5-carboxamide]
27 | < 200 nM | NC(=O)c1cnc(N[C@@H]2CCCOC2)nc1N[C@@H]1CCC[C@H](O)C1 [Example A-50, 4-((1R,3S)-3-hydroxycyclohexylamino)-2-((R)-tetrahydro-2H-pyran-3-ylamino)pyrimidine-5-carboxamide]
28 | < 200 nM | CC1(Nc2ncc(C(N)=O)c(N[C@@H]3CCC[C@H](O)C3)n2)CCOCC1 [Example A-151, 4-((1R,3S)-3-hydroxycyclohexylamino)-2-(4-methyltetrahydro-2H-pyran-4-ylamino)pyrimidine-5-carboxamide]
